Source: patent publication US20150133666A1, “TRITOQUALINE FOR USE IN THE TREATMENT OF CYSTIC FIBROSIS” (priority 2012, published 2015)

Key:
histamine H4 receptor = target: T1, histamine H4 receptor (Homo sapiens, UniProt Q9H3N8); assay: Inhibition of proliferation of CFU rich in H4 receptor (FIG. 4); type: cell-based; settings: for activity on CFU proliferation when using an anti H4: FIG. 4, with an anti H4
T1 construct: endogenous in cells; host or cells: CFU (colony-forming units) rich in H4 receptor
T1 sequence (Q9H3N8 whole entry, species assumed): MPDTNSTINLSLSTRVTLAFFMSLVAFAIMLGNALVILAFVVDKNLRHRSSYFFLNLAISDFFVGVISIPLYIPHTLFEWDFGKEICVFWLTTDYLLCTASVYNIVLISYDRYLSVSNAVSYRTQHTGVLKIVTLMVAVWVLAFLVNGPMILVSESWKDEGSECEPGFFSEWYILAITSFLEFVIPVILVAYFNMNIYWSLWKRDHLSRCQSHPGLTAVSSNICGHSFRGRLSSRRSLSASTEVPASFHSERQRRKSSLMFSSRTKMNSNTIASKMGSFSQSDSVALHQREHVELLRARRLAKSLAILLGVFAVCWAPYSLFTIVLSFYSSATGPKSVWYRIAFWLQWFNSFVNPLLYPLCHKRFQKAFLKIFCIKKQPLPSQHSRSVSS

cystic fibrosis patients = settings: background statement; cited from earlier work
cystic fibrosis patient [1] = assay: FEV1 (Forced Expiratory Volume in 1 second) in patients with cystic fibrosis treated with tritoqualine; type: in vivo, human
Description: During the initial consultation, a treatment based on tritoqualine was started at a daily dose of 200 mg.
Before therapy with tritoqualine, the FEV1 (Forced Expiratory Volume in 1 second) of this young patient was 0.39 L/s or 55.71% of the normal expected value (based on age, sex, and size). The flow rate was measured with a Jaeger® MasterScreen® Body plethysmography apparatus.
(§1) This level of ventilatory flow signals a severe respiratory impairment. This patient also had 15 lung infections per year prior to treatment. After 6 months of treatment with tritoqualine at a dose of 200 mg/day, the ventilatory flows were again measured. At this second visit, the FEV1 parameter was measured at 0.50 L/s. […] During the third visit, months after the first visit, the flows were again measured.
Before therapy with tritoqualine, the FEV1 of the patient was measured at 0.45 L/s or only 69.23% of the normal expected value (based on age, sex, and size).
(§2) This patient had had 8 lung infections per year prior to treatment. After 6 months of treatment at the daily dose of 400 mg of tritoqualine, the FEV1 parameter was measured again during a second consultation. The FEV1 parameter measured during this consultation went from 0.45 L/s to 0.50 L/s, or an improvement of 11.11% of the ventilatory flows.
A child with cystic fibrosis was treated during their first consultation with a dose of 300 mg of tritoqualine.
(§3) Before therapy with tritoqualine, the FEV1 of the patient was measured at 0.70 L/s, or 63.64% of the normal expected value (based on age, sex, and size). This patient had had 12 pulmonary infections per year before the treatment. After a 6-month treatment with a daily dose of 300 mg of tritoqualine, the FEV1 parameter was measured at their second consultation at 1.0 L/s. This represents an improvement of 42.86% over the initial visit. (100*([…])/0.70). After 12 months of treatment, the FEV1 parameter measured during the third consultation was 1.20 L/s or 71.43% improvement compared to the initial visit. (100*(1.20-0.70)/0.70).

cystic fibrosis patient [2] = assay: Number of lung infections (superinfections) per year in patients with cystic fibrosis treated with tritoqualine; type: in vivo, human
Description: as §1
Over 12 months, the number of superinfections decreased from 15 to only 4 infections.
as §2
During the 12-month treatment with tritoqualine (400 mg daily), the patient benefited from a significant reduction in pulmonary infections, from 8 initially to only 3 infections after 12 months of treatment.
as §3
These decreased from 12 to 3 infections in one single year.

histidine decarboxylase = target: T2, histidine decarboxylase (Homo sapiens, UniProt P19113); settings: background statement; cited from earlier work
T2 sequence (P19113 1-662): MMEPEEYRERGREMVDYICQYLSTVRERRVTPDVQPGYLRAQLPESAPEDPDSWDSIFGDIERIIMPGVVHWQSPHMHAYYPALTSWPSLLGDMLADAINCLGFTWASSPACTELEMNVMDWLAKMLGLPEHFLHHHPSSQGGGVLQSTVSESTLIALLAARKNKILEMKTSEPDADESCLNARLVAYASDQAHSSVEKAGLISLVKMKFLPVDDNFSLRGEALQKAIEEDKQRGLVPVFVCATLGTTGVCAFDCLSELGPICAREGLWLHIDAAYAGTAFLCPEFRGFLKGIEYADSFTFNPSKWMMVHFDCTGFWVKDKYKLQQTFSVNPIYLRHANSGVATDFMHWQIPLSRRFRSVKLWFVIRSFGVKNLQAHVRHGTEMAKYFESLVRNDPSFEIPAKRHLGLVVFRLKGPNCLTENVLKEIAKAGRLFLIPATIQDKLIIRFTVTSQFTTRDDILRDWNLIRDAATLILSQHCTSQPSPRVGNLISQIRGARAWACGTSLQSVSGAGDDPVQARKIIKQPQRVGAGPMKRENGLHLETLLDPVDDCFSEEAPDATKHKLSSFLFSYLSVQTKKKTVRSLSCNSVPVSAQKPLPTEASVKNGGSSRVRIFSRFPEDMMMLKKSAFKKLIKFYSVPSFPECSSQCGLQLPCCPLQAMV

[3] = white powder; degrades into cotarnine and phthalic acid; cited from earlier work

NC(=NCc1ccc(Cl)cc1)SCCCc1cnc[nH]1 [Clobenpropit]
activity on CFU proliferation when using an anti H4 (histamine H4 receptor): greatly reduced

CC(C)(C)c1cc(C(C)(C)C)c(NC(=O)c2c[nH]c3ccccc3c2=O)cc1O [Kalydeco]
improvement in FEV1 (cystic fibrosis patients): 10%

CCOc1c(N)c2c(c(OCC)c1OCC)C(C1c3c(cc4c(c3OC)OCO4)CCN1C)OC2=O (centres unmarked) [tritoqualine, 7-Amino-4,5,6-triethoxy-3-(5,6,7,8-tetrahydro-4-methoxy-6-methyl-1,3-dioxolo[4,5-g]isoquinolin-5-yl) phthalide]
increase of FEV1 compared to initial flows (cystic fibrosis patient [1]; Example 1: child, 200 mg/day, after 6 months): 28.2%
FEV1 (cystic fibrosis patient [1]; Example 1: child, 200 mg/day, after 6 months (second visit), before therapy 0.39 L/s): 0.50 L/s
improvement of FEV1 compared to initial rates (cystic fibrosis patient [1]; Example 1: child, 200 mg/day, third visit): 58.7%
FEV1 (cystic fibrosis patient [1]; Example 1: child, 200 mg/day, third visit, before therapy 0.39 L/s): 0.62 L/s
increase of ventilatory flows (cystic fibrosis patient [1]; Example 1: summary statement): more than 50%
improvement of ventilatory flows (FEV1) (cystic fibrosis patient [1]; Example 2: adult, 400 mg/day, after 6 months vs baseline): 11.11%
FEV1 (cystic fibrosis patient [1]; Example 2: adult, 400 mg/day, after 6 months, before therapy 0.45 L/s): 0.50 L/s
increase in FEV1 compared to the initial visit (cystic fibrosis patient [1]; Example 2: adult, 400 mg/day, after 12 months): 28.89%
FEV1 (cystic fibrosis patient [1]; Example 2: adult, 400 mg/day, after 12 months, before therapy 0.45 L/s): 0.58 L/s
improvement of FEV1 over the initial visit (cystic fibrosis patient [1]; Example 3: child, 300 mg/day, after 6 months): 42.86%
FEV1 (cystic fibrosis patient [1]; Example 3: child, 300 mg/day, after 6 months, before therapy 0.70 L/s): 1.0 L/s
improvement of FEV1 compared to the initial visit (cystic fibrosis patient [1]; Example 3: child, 300 mg/day, after 12 months): 71.43%
FEV1 (cystic fibrosis patient [1]; Example 3: child, 300 mg/day, after 12 months, before therapy 0.70 L/s): 1.20 L/s
number of superinfections (cystic fibrosis patient [2]; Example 1: child, 200 mg/day, over 12 months, 15 per year prior to treatment): 4 infections
reduction factor of number of infections (cystic fibrosis patient [2]; Example 1: summary statement): divided by three
number of pulmonary infections (cystic fibrosis patient [2]; Example 2: adult, 400 mg/day, after 12 months, 8 initially): 3 infections
number of pulmonary infections (cystic fibrosis patient [2]; Example 3: child, 300 mg/day, in one year, 12 before treatment): 3 infections
proliferation of CFU rich in H4 receptor (histamine H4 receptor; FIG. 4): capable of inhibiting the proliferation
activity on CFU proliferation when using an anti H4 (histamine H4 receptor): greatly reduced
inhibitory action on histidine decarboxylase (histidine decarboxylase): very low
sensitivity to light [3]: very sensitive to light
